Tested on: urinary nitrogen excretion
Test: Phase I double-blind, placebo-controlled, multiple dose evaluation of test compound in calorically restricted, obese men and women
Assay type: in vivo, human
Conditions: obese subjects on caloric-restricted diet, 3 mg po tid, 6 mg po tid or 10 mg po qam for seven days
Description: Phase I Double-Blind, Placebo-Controlled, Multiple Dose Evaluation of Test Compound in Calorically Restricted, Obese Men and Women
A total of 48 obese subjects, with a negative exercise tolerance test and without significant other medical problems, were recruited for this study and placed on a caloric-restricted diet. Subjects were randomized to either placebo, 3 mg po tid, 6 mg po tid or 10 mg po qam of the test compound, 2-amino-N-[2-(3a-(R)-benzyl-2-methyl-3-oxo-2,3,3a,4,6,7-hexahydro-pyrazolo[4,3-c]pyridin-5-yl)-1-(R)-benzyloxymethyl-2-oxo-ethyl]-isobutyramide, L-tartrate, for a total of seven days.
The primary efficacy outcome variable of this study was urinary nitrogen excretion. Breakdown of protein (protein catabolism) may be measured by urinary nitrogen excretion. The covariates determined in this study included: 1.) gender; 2.) serum total and free testosterone; and 3.) serum total and free estradiol.

**Q.** How did the “effect on urinary nitrogen (excretion)” value (men) turn out when `CN1N=C2CCN(C(=O)[C@@H](COCc3ccccc3)NC(=O)C(C)(C)N)C[C@@]2(Cc2ccccc2)C1=O.O=C(O)C(O)C(O)C(=O)O` [test compound, 2-amino-N-[2-(3a-(R)-benzyl-2-methyl-3-oxo-2,3,3a,4,6,7-hexahydro-pyrazolo[4,3-c]pyridin-5-yl)-1-(R)-benzyloxymethyl-2-oxo-ethyl]-isobutyramide, L-tartrate] was run?
**A.** manifest in men

**Q.** What about the “effect on urinary nitrogen (excretion)” value (women) of the same molecule?
**A.** modest effects of treatment in women

Reference: patent publication US20030199514A1, “Methods for improving efficacy of treatment with growth hormone secretagogues” (priority 2002, published 2003)
